For experiment [1], the system named is AE upregulated genes (ID1, CARM1, MYC). Nature of the experiment: Realtime PCR of AE upregulated genes in Kasumi-1 cells. To be noted: 72 hours, standardized by 18S rRNA level. The format is cell-based, human. The protocol:
(§1) FIGS. 8A-8F. The effect of TAF1 bromodomain inhibitor Bay-364 on the growth of Kasumi-1 cells, K562 cells and CD34+ cells. (FIGS. 8A-8C) The growth of Kasumi-1 cells, CD34+ cells and K562 cells in the presence or absence of different concentrations of bromodomain inhibitors Bay-364, Bay-299 or JQ-1. The cell growth was measured by CellTiter-Glow luminescent cell viability assay after 3 days of treatment with the inhibitors. Each treatment was in triplicate and shown as average±SD. (FIG. 8D) IC50s (μM) of inhibitors on Kasumi-1, CD34+ and K562 cellsKasumi-1 cells, CD34+ cells and K562 cells were treated with different concentrations of Bay-364, Bay-299 and JQ-1 for three days and cell growth was measured by CellTiter-Glow luminescent cell viability assay. Each treatment was in triplicate and IC50s were calculated using GraphPad Prism. […] RNA was extracted from Kasumi-1 cells treated with or without Bay-364 for 72 hours. mRNA levels of individual genes were standardized by 18S rRNA level. (FIG. 8F) TAF1 working model: Under normal conditions, the acetylation of K43 on AE by p300 is recognized by the bromodomains of TAF1 and TAF1 enhances the binding of AE to chromatin. Then transcription is activated. […]
RNA was extracted using RNeasy mini kit (Qiagen) and cDNA was generated by QuantiTect Rev. […]

For the next experiment, the system named is K562 cells. Nature of the experiment: Cell growth, CellTiter-Glow luminescent cell viability assay, K562 cells. Type of experiment: cell-based. To be noted: 3 days of treatment. The method, then: as §1, with “activated. In absence of TAF1, the binding affinity of AE with chromatin is abrogated, and transcription is blocked.” for “activated.”
For the next experiment, the system named is Kasumi-1 cells. Description: Cell growth, CellTiter-Glow luminescent cell viability assay, Kasumi-1 cells. The conditions noted are these: for growth of Kasumi-1 cells: 3 days of treatment. The format is cell-based, human. The protocol:
FIGS. 8A-8F. The effect of TAF1 bromodomain inhibitor Bay-364 on the growth of Kasumi-1 cells, K562 cells and CD34+ cells. (FIGS. 8A-8C) The growth of Kasumi-1 cells, CD34+ cells and K562 cells in the presence or absence of different concentrations of bromodomain inhibitors Bay-364, Bay-299 or JQ-1. The cell growth was measured by CellTiter-Glow luminescent cell viability assay after 3 days of treatment with the inhibitors. Each treatment was in triplicate and shown as average±SD. (FIG. 8D) IC50s (μM) of inhibitors on Kasumi-1, CD34+ and K562 cellsKasumi-1 cells, CD34+ cells and K562 cells were treated with different concentrations of Bay-364, Bay-299 and JQ-1 for three days and cell growth was measured by CellTiter-Glow luminescent cell viability assay. Each treatment was in triplicate and IC50s were calculated using GraphPad Prism. […] RNA was extracted from Kasumi-1 cells treated with or without Bay-364 for 72 hours. mRNA levels of individual genes were standardized by 18S rRNA level. (FIG. 8F) TAF1 working model: Under normal conditions, the acetylation of K43 on AE by p300 is recognized by the bromodomains of TAF1 and TAF1 enhances the binding of AE to chromatin. Then transcription is activated. In absence of TAF1, the binding affinity of AE with chromatin is abrogated, and transcription is blocked.
Kasumi-1 cells were grown in RPMI 1640 supplemented with 20% fetal bovine serum, SKNO-1 cells were grown in RPMI 1640 with 10% fetal bovine serum and 10 ng/ml GM-CSF. K562 cells were grown in IMDM with 10% fetal bovine serum.
Bay-364 (also Bay-299N) is a commercially available small molecule inhibitor of the second bromodomain in TAF1. Given the essential role of TAF1 in the proliferation of AE expressing cells, the effect of Bay-364 on the growth of Kasumi-1, K562 and CD34+ cells was examined. […] JQ-1 inhibits the bromodomains of several BET family proteins including BRD2, BRD3, BRD4 and BRDT.
For orientation: ATP-based viability assays read luminescence as a measure of living cells.

The subject of a further experiment is CD34+ cells. Nature of the experiment: Cell growth, CellTiter-Glow luminescent cell viability assay, CD34+ cells. The format is cell-based, human. To be noted: 3 days of treatment. The method, then: as §1, with “level.” for “level. (FIG. 8F) TAF1 working model: Under normal conditions, the acetylation of K43 on AE by p300 is recognized by the bromodomains of TAF1 and TAF1 enhances the binding of AE to chromatin. Then transcription is activated.”
Human cord blood was purchased from the New York Blood Center. […] Seven days after the initial plating, colonies were counted and then all the cells were collected for replating weekly with a density of 3000 cells per well for continuous 4 weeks. Cobblestone area forming cell assays (CAFC) were performed as described previously 25, the numbers of total cobblestone area were counted after 5 weeks. […]

As to `Cn1c(=O)[nH]c2cc(N3C(=O)c4cccc5c(CCCO)ccc(c45)C3=O)ccc21` [Bay-364], the “mRNA levels of ID1, CARM1, MYC” value in experiment [1] is “repressed the expression of these genes”. In the experiment with K562 cells, the “growth of K562 cells” value is listed as “little influence on the growth”. The “growth of Kasumi-1 cells” value in the experiment with Kasumi-1 cells is “more sensitive to Bay-364 treatment than CD34+ cells”. In the experiment on CD34+ cells, the “growth of CD34+ cells” value is listed as “much less toxicity on HSPCs”.

For `Cc1sc2c(c1C)C(c1ccc(Cl)cc1)=N[C@@H](CC(=O)OC(C)(C)C)c1nnc(C)n1-2` [JQ-1], the “growth of Kasumi-1 cells” value with Kasumi-1 cells is recorded as “more potent than Bay-364”. Besides, the “IC50s on Kasumi-1 cells compared with CD34+ cells” value in the experiment on Kasumi-1 cells (three days, GraphPad Prism) is “quite similar”.

Regarding `Cc1cc2c(cc1N1C(=O)c3cccc4c(CCCO)ccc(c34)C1=O)n(C)c(=O)n2C` [Bay-299, 6-(3-Hydroxypropyl)-2-(1,3,6-trimethyl-2-oxo-2,3-dihydro-1Hbenzimidazol-5-yl)-1H-benzo[de]isoquinoline-1,3(2H)-dione], the “growth of K562 cells” value in the experiment with K562 cells is recorded as “suppresses the growth”. In addition, the “growth of Kasumi-1 cells” value in the experiment with Kasumi-1 cells is “suppresses the growth”. In the experiment on CD34+ cells, the “growth of CD34+ cells” value is listed as “suppresses the growth”.

For the origin of these results see patent US20190192502A1, “Modulation of Transcription Initiation Factor TFIID Subunit 1 (TAF1) for Treating Leukemia” (UNIVERSITY OF MIAMI, priority 2017, published 2019).
